# Tested on: adulte ovarektomierte Ratten
# Experiment: Uterus wet weight after single oral application in adult ovariectomized rats (oral estrogenic effect, dose-response analysis)
# Format: in vivo
# Details: suspended in Myrj, 3-100 µg/T (dose refers to steroid part), uterus wet weight on day 4, Abbildungen 1 und 2
# Text: Als Vergleiche dienten Ethinylestradiol (EE) und 14α,15α-Methylen-estra-1,3,5(10)-trien-3,17β-diol (Code: J824) Die Ermittlung der Uterusfeuchtmassen nach einmaliger oraler Substanzapplikation sowie die Dosis-Wirkungsanalysen der Substanzen wurde zur Bemessung einer Estrogenwirkung herangezogen.
# Sowohl Uterus als auch Vagina zeigen bei ovarektomierten Ratten eine von der Estrogendosis abhängige Gewichtszunahme. Diese ist auf eine Proliferation der Schleimhäute, erhöhte Proteinsynthese, aber auch auf eine Wassereinlagerung zurückzuführen. Für die der Erfindung zu Grunde liegenden Untersuchungen wurden adulte ovarektomierte Ratten eingesetzt. In einer kontrollierten Studie wurden Ester des 14α,15α-Methylen-estradiols auf estrogene Wirkung bei oraler Applikation gegen Ethinylestradiol(EE) und 14α,15α-Methylen-estradiol (J 824) geprüft. Die angegebenen Dosierungen beziehen sich auf den Steroidkern der Moleküle. Die Testsubstanzen wurden einmalig oral appliziert. Als Parameter einer Estrogenwirkung wurden am 4. Tag des Versuches die Uterusgewichte ermittelt (Feuchtgewichte).
# Weibliche Ratten [Stamm: BOR:WISW (SPF/Cpb)], Körpermasse zu Versuchsbeginn 200 - 240 g wurden ovarektomiert und 10 Tage nach diesem Eingriff randomisiert den Versuchsgruppen zugeordnet. Dann erfolgte die einmalige orale Applikation (Tag 1) der Prüfsubstanzen. Am 4. […]
structure (smiles),measurement,value
"C[C@]12CC[C@@H]3c4ccc(O)cc4CC[C@H]3[C@@]13C[C@H]3C[C@@H]2O [J824, 14α,15α-Methylen-estra-1,3,5(10)-trien-3,17β-diol]",orale Estrogenwirkung (Uterusfeuchtmassen),bessere estrogene Wirkung des J824 gegenüber EE

# From patent EP0707593B1, “ORALLY ADMINISTERABLE ESTERS OF 14 ALPHA,15 ALPHA-METHYLENE-OESTRADIOL WITH AN OESTROGENIC ACTION” (Jenapharm GmbH & Co. KG, priority 1993, dated 1995)
